One experiment has as its target α-glucosidase (Saccharomyces cerevisiae, UniProt P53341). Nature of the experiment: Alpha-glucosidase inhibition assay. Conditions: standard acarbose. Type of experiment: biochemical. The source says: (§1) In order to obtain biological profiles, all the derivatives were screened against enzymes α-amylase along and α-glucosidase.
Another experiment deals with T1, α-amylase (Sus scrofa, UniProt P00690).
T1 sequence (P00690 16-511): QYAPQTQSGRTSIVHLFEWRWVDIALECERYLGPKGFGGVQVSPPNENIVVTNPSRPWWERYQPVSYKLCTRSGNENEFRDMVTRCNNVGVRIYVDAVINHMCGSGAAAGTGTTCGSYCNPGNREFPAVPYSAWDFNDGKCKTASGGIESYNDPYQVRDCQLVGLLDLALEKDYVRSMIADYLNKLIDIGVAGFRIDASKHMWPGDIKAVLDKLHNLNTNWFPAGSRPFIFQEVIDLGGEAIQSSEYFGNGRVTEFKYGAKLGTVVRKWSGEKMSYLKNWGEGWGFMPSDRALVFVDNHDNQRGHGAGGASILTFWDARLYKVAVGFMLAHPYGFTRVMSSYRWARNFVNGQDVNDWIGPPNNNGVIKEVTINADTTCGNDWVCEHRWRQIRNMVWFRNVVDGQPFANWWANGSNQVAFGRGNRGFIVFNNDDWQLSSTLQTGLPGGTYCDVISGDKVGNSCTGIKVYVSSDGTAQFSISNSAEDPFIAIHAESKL
Nature of the experiment: Alpha-amylase activity assay (starch, DNS, 540 nm). Type of experiment: biochemical. Conditions: standard acarbose.
Text: as §1

α-glucosidase, sequence (P53341 whole entry): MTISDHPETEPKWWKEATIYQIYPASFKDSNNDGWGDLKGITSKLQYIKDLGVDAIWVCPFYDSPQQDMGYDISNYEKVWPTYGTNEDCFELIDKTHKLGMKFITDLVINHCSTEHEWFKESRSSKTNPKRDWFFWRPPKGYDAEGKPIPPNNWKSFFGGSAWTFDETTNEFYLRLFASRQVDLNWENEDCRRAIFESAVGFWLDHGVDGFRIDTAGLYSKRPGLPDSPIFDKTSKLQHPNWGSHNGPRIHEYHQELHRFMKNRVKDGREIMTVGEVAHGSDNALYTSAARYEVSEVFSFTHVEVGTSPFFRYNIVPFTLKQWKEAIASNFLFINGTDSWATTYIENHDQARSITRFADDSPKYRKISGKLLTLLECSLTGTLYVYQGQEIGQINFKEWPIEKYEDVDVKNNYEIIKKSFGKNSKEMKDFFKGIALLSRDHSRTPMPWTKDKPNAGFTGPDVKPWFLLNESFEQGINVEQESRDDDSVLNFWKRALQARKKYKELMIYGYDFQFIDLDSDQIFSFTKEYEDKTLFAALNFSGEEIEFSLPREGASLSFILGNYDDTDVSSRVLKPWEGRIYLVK

In the case of `O=C1CS/C(=N\c2nnc(CC(c3c[nH]c4ccccc34)C(F)(F)F)o2)N1c1cccc(Oc2ccccc2)c1` (centres unmarked) [Compound 14], the “Alpha Glucosidase IC50” value on α-glucosidase is listed as “non-active”. In addition, the “Alpha Amylase IC50” value at α-amylase is “non-active”.

Source of the values: publication PMC11597374, “Synthesis, Characterizations, Anti-Diabetic and Molecular Modeling Approaches of Hybrid Indole-Oxadiazole Linked Thiazolidinone Derivatives” (Pharmaceuticals, 2024).
